Results taken from US6150414A, “Compositions and methods for treating viral infections” (priority 1992, dated 2000).
“And” between values parts separate entries of the source, which are not always exact repeats. Equal entries are not always repeated.

Experiments:
retroviruses (virions) = experiment: Direct inactivation of retroviruses (virions) in vitro (Example 10); type: biochemical, Radiation Leukemia Virus; conditions: Table IX
How it was run: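 RadLV-containing supernatants from chronically infected B10.T(6R) cells incubated 30 min on ice with hypericin or protohypericin. Virions then pelleted at 100,000×g for 1 h at 4° C and assayed for reverse transcriptase activity. EC50 is the micromolar concentration inhibiting 50% of virus.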

[1] = Stability to light and pH; type: physicochemical; conditions: neutral or acetic pH
[2] = biological target: T1, Radiation Leukemia Virus reverse transcriptase (Radiation murine leukemia virus, UniProt P11227); experiment: Radiation Leukemia Virus reverse transcriptase assay, supernatants from infected AQR cells (Examples 4 and 9); type: biochemical; conditions: Table VIII; for CPM: replicate
T1 construct: the reverse transcriptase of Radiation Leukemia Virus; endogenous in cells
How it was run: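 Supernatants from AQR cells chronically infected with RadLV were incubated 30 min on ice with the test compound (hypericin, protohypericin or HHA). Virus was pelleted at 100,000×g for 1 h at 4 °C, and the pellet was assayed for reverse transcriptase activity.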

Friend Leukemia Virus [3] = experiment: In vivo inhibition of Friend Leukemia Virus splenomegaly, intravenous 1-2 hours post infection (Example 10); set-up: species or system mice; conditions: Mus musculus, i.v. 1-2 hours post infection, Table IX, read-out: EC50 for FV-induced splenomegaly
Protocol: (3) In vivo inhibition of Friend Leukemia Virus Splenomegaly performed as described in Example 1 above except that the compounds were administered intravenously 1-2 hours post infection.
The results presented above in Table IX are presented as EC50 concentrations. These are the effective concentrations which inhibit 50% of the viruses in micromolar concentrations.

retroviruses = experiment: Comparison over two in vitro and one in vivo biological assays (Example 10); conditions: Example 10, structural comparison
How it was run: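 In vitro direct inactivation of retroviruses was tested alongside in vivo inhibition of Friend Leukemia Virus splenomegaly in mice. For the in vivo test, compounds were given intravenously 1-2 hours post infection.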

Friend Virus = experiment: Friend Virus-induced splenomegaly, WIS compounds (Example 8); type: in vivo, mice; set-up: Actual Spleen Weight / Average Spleen Weight: unit not given here; conditions: Table VII; for Actual Spleen Weight: single animal
Protocol: (§1) The effects of compositions according to the present invention on the increase in spleen size (splenomegaly) of BALB/c mice (Jackson Labs, Bar Harbor, ME) was examined. In these experiments, the virus (10^6 focus forming units--FFU) was inoculated intravenously and 100 micrograms of the compounds indicated in Table II were administered to the mice intraperitoneally 24 hours later. Each compound was administered once to two mice. The animals were sacrificed ten days later and their spleens weighed.
(§2) As used in Table II (and subsequent Tables of this Example l(a) and (b), "average percent inhibition" is calculated as follows: [formula] wherein "ASWNC" designates "average spleen weight of negative control"; "ASWE" designates "average spleen weight of experimental (treated) subject"; and "ASWPC" designates "average spleen weight of positive control". Average spleen weight is the numerical average of spleen weights of each experimental group (in Table II each such group includes two members).
The AAB compounds whose synthesis is described above were assayed for antiviral activity. WIS-2, -3, -4, -5 and -6 were tested to determine their biological effects on Friend Virus-induced splenomegaly using the procedure and technique set forth in Example 1 above. The assay results (three mice per group were tested each at different concentrationss of the active composition except for the PBS-negative control wherein two animals per group were used) are reported in Table VII below.

HIV = conditions: human, in vivo; cited from earlier work
Friend Leukemia Virus [4] = experiment: FV-induced splenomegaly, PAC compounds in combination with AZT (Example 1(b)); type: in vivo, BALB/c mice; conditions: 5X AZT 20 micrograms per mouse
Protocol: as §1, §2
The compounds of the present invention (100 micrograms per mouse) were also tested in combination with AZT (20 micrograms per mouse, twice a day) using otherwise the same methods as in Example 1(a) above. As representatives, compound #9 above (3-bromophenanthro (3,4-C), phenanthrene) and compound #10 (diindeno (1, 2, 3-CD/1', 2', 3'-IM) Perylene) were chosen. […] The compounds were administered i.p. either once or five times (once per day) alone or together with AZT (20 micrograms of AZT per mouse twice a day for five days?). Thus, in experiments where AZT was administered five times, a total of […] of AZT was received by each mouse (with a total of 500 micrograms of the PAC compound).

In the case of Cc1cc(O)c2cc3c(O)cc(O)c4c5c(O)cc(O)c6cc7c(O)cc(C)c8c1c2c(c34)c(c78)c65 [WIS-5, desoxyhypericin], the EC50 (retroviruses (virions)) is reported as greater than 21 µM, the “stability vs pH” value [1] is reported as “decomposses readily in neutral or acetic pH” and the “Average CPM” value ([2]; 0.05 micrograms) is reported as 193,017 CPM. The CPM ([2]; 0.05 micrograms) was 183,654 CPM and 202,380 CPM, the “Average CPM” value ([2]; 0.1 micrograms) was 171,635 CPM and the CPM ([2]; 0.1 micrograms) was 172,984 CPM and 170,286 CPM. The “Average CPM” value ([2]; 0.5 micrograms) was 249,351 CPM, the CPM ([2]; 0.5 micrograms) was 240,372 CPM and 258,330 CPM and the “Average CPM” value ([2]; 1 microgram) was 251,168 CPM. The CPM ([2]; 1 microgram) was 238,782 CPM and 263,554 CPM, the “Average CPM” value ([2]; 2 micrograms) was 205,469 CPM and the CPM ([2]; 2 micrograms) was 216,764 CPM and 194,174 CPM. For the same molecule, the “Average CPM” value ([2]; 5 micrograms) was 236,878 CPM, the CPM ([2]; 5 micrograms) was 220,588 CPM and 253,168 CPM and the “Average CPM” value ([2]; 10 micrograms) was 177,364 CPM. For the same molecule, the CPM ([2]; 10 micrograms) was 168,008 CPM and 186,720 CPM, the inhibition at 50 ng ([2]; 0.5 h, 0.05 micrograms) was 76.4% and the inhibition at 0.0001 mg ([2]; 0.5 h, 0.1 micrograms) was 79%. For the same molecule, the inhibition at 0.0005 mg ([2]; 0.5 h, 0.5 micrograms) was 69.5%, the inhibition at 0.001 mg ([2]; 0.5 h, 1 microgram) was 69.2% and the inhibition at 0.002 mg ([2]; 0.5 h, 2 micrograms) was 74.8%. The inhibition at 0.005 mg ([2]; 0.5 h, 5 micrograms) was 71%, the inhibition at 0.01 mg ([2]; 0.5 h, 10 micrograms, read-out: Average % Inhibition) was 78.3% and the EC50 (Friend Leukemia Virus [3]) was greater than 316 µM. The “loss of antiviral activity relative to parent” value (retroviruses) was “significant loss of in vivo reverse transcriptase inhibitory activity”, the “Average % Inhibition” value (Friend Virus; 1 microgram) was 5.9% and the “Average Spleen Weight” value (Friend Virus; 1 microgram) was 0.9197. The “Actual Spleen Weight” value (Friend Virus; 1 microgram) was 0.9062 and 0.9528 and 0.9001, the “Average % Inhibition” value (Friend Virus; 10 micrograms) was 6.5% and the “Average Spleen Weight” value (Friend Virus; 10 micrograms) was 0.9147. The “Actual Spleen Weight” value (Friend Virus; 10 micrograms) was 0.9126 and 0.8898 and 0.9417, the “Average % Inhibition” value (Friend Virus; 50 micrograms) was 19.3% and the “Average Spleen Weight” value (Friend Virus; 50 micrograms) was 0.8134. The “Actual Spleen Weight” value (Friend Virus; 50 micrograms) was 0.7817 and 0.8389 and 0.8196, the “Average % Inhibition” value (Friend Virus; 150 micrograms) was 35.2% and the “Average Spleen Weight” value (Friend Virus; 150 micrograms) was 0.6879. The “Actual Spleen Weight” value (Friend Virus; 150 micrograms) was 0.6919 and 0.6790 and 0.6927.
For Cc1cn([C@H]2C[C@H](N=[N+]=[N-])[C@@H](CO)O2)c(=O)[nH]c1=O [AZT, 3'-azido-3'-dideoxythymidine, reference compound], the “clinical toxicity of AZT” value (HIV) is listed as “dose-dependent suppression of bone marrow, resulting in anemia and leukopenia”, the “% Inhibition” value (Friend Leukemia Virus [4]) is listed as 39% and the Average Spleen Weight (Friend Leukemia Virus [4]) is listed as 1.3895. The Spleen weight (Friend Leukemia Virus [4]; single animal) was 1.3744 and 1.4046.
